pIC50: −log10 of the molar value. Several values for one entry are separate records, joined by “and”; a condition that tells them apart may be missing. Identical values can stand only once.
tested on: TOV-21G (ovarian); assay: Cancer cell proliferation assay (acid phosphatase); assay type: cell-based; conditions: Homo sapiens, TOV21G, 72 h, Table 6A; 72 hrs; read-out: TOV-21G IC50
Procedure: Measurement of the inhibitive effect of compounds on cancer cell proliferation was performed. Various cell lines were tested, including HCT-116 (colon); A549 (lung); TOV-21G (ovarian); Calu-6 (lung); and LS-174T (colon); and cell lines H1703 (Lung) and SKOV3 (ovarian); JEKO-1 (lymophoma); TOV-112D (ovarian) are tested. The assays were performed under the following conditions: Cells are harvested at a concentration of 4×10^4 cells/ml in media. Volumes of 100 μl/well of these cell suspensions were added to a 96 well plate using a multichannel pipette. Plates were gently agitated to ensure an even dispersion of cells over a given plate. Cells were then incubated at 37° C., 5% CO2 overnight. Following this, 100 μl of compound at varying concentrations was added to wells in triplicate. Control wells are those with 100 μl media containing 0.33% DMSO added to cell suspension (this is the equivalent volume of DMSO found in the highest concentration of drug). Plates were then gently agitated, as above, and incubated at 37° C., 5% CO2 for 72 hrs (control wells have reached 80-90% confluency). Assessment of cell proliferation in the presence of the compound was determined by the acid phosphatase assay.
Following the incubation period of 72 hrs, media was removed from the plates. Each well on the plate was washed twice with 100 μl PBS. This was then removed and 100 μl of freshly prepared phosphatase substrate (10 mM p-nitrophenol phosphate in 0.1M sodium acetate, 0.1% triton X-100, pH 5.5) was added to each well. The plates were then incubated in the dark at 37° C. for 2 hours. Colour development was monitored during this time. The enzymatic reaction was stopped by the addition of 50 μl of 1N NaOH. The plate was read in a dual beam plate reader at 405 nm with a reference wavelength of 620 nm. The absorbance reading of the latter is subtracted from the former, and the effect of the drug on cell proliferation was then measured as a percentage against the control cells (DMSO), which is taken as 0% inhibition.

| Compound | pIC50 |
| --- | --- |
| Cc1ccccc1C(=O)Nc1nc(NC(=O)[C@@H]2C[C@H](F)CN2)nn1-c1ccccc1 [Compound 3] | 5.62 |

target: T1, Parkin ligase (Homo sapiens, UniProt O60260); assay: Activity-Based Probe Assay using Ubiquitin vinyl sulfone probe (TR-FRET); assay type: biochemical; conditions: heat activated Parkin, HA-Ub-VS probe, activation EC50; read-out: Probe Assay EC50 (μM) [Example 2]
T1 sequence (O60260 1-465): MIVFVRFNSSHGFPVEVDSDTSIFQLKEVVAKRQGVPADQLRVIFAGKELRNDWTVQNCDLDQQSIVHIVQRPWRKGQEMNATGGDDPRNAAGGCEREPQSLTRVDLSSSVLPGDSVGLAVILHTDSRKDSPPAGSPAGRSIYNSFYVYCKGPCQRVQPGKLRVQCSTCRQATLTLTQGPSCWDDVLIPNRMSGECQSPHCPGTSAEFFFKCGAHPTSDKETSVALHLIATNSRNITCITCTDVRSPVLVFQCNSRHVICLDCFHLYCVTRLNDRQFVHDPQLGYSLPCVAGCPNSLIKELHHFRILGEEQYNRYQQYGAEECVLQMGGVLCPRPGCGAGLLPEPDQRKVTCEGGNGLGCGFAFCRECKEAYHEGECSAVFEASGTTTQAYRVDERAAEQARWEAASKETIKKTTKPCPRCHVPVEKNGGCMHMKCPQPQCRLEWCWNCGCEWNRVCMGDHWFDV
Procedure: An Ubiquitin vinyl sulfone probe can be used that irreversibly binds to the active site cysteine of Parkin ligase. Covalent attachment of the probe to the Parkin can be monitored by TR-FRET. Candidate activator compounds can be identified by increasing the activity of Parkin ligase due to an increase in TR-FRET signal. Screening for activating compounds can be distinguished from the controls as follows: 100% activation signal=Heat activated Parkin+100 nM control activator in DMSO. 0% activation signal=Heat activated Parkin+DMSO only. Parkin activators can be identified by an increase of the 0% activation signal TR-FRET signal. Assay Conditions: Materials: • Assay Plate: White 384 well plate (Corning 3572) • Enzyme: Parkin-His tagged 203 μM (10.5 mg/ml) • Probe: Ubiquitin vinyl-sulfone (HA-Ub-VS Boston Biochem U-212) • DMSO: DMSO (Sigma cat #D4540-100ML) • Reaction Buffer: 50 mM HEPES (pH 8.5), 150 mM NaCl, 0.01% Tween 20, 0.1% BSA • Detection Buffer: 50 mM HEPES (pH 8.5), 150 mM NaCl, 0.01% Tween 20, 0.1% BSA, 800 mM KF • Detection Reagent A: 2.6 nM Anti-6HIS-Eu cryptate and 40 nM Anti-HA-XL665 in detection buffer • Eu cryptate: Anti-6HIS-Eu cryptate (CisBio 61HISKLA) • XL665: Anti-HA-XL665 (CisBio 610HAXLA) Enzyme Reaction (15 Min Pre Incubation Parkin with Activator Only) • Parkin: 40 nM • HA-Ub-VS Probe: 70 nM • Activator/DMSO: 2× Activator/2% DMSO Reaction time: 60 minutes Temperature: 22° C. Total volume: 10 μl reaction Detection Reaction Take […] of Enzyme Reaction above and add 10 μl detection Reagent A under the following conditions: • Reaction time: 60 minutes • Temperature: 22° C. • Total volume: 20 μl
Assay procedure (Using HP D-300 compound dispenser and Bravo for the operation):
1) Heat activate Parkin in reaction buffer (500 μl/1.5 ml tube: Eppendorf Thermomixer 5 minutes, 400 rpm at 58° C. and put on ice until needed).
2) Load assay plate wells with 4.8 μl 84.5 nM Parkin in reaction buffer by use of Bravo.
3) Deliver 0.2 μl 200× activator candidates in DMSO by use of HP D-300 compound dispenser. Highest 200× concentration=[…] and then twofold dilutions.
4) Spin 1000 rpm, 2 minutes, at room temp.
5) Incubate plate for 15 minutes at room temp.
6) Add 5 μl 140 nM HA-Ub-VS Probe in reaction buffer by use of Bravo.
7) Spin 1000 rpm, 2 minutes, at room temp.
8) Incubate plate for 60 minutes at room temp.
9) Add 10 μl 2.6 nM Anti-6HIS-Eu cryptate and 40 nM […] in detection buffer.
10) Spin 1000 rpm, 2 minutes, at room temp.
11) Incubate plate for 60 minutes at room temp.
12) Read plates on Perkin Elmer Envision instrument with the following parameters:
LANCE dual laser protocol loaded into the Envision® software
Top Mirror: LANCE/DELFIA Duel/Bias (Bar code 446)
Emission Filter: APC 665 EM (Bar code 205)
2nd Emission Filter: Europium 615 EM (Bar code 203)
Read 655 nm (channel 1) and 615 nm (channel 2) wavelengths on Envision®
Data Analysis: The Data can be read in CSV files. There are two tables in those CSV files, which are the values of 655 nm (channel 1) and 615 nm (channel 2) wavelengths respectively. The data is converted to an HTRF Ratio=(Channel 1/Channel 2)*10,000
The average of all the 0 μM controls (DMSO only)=BKGD (Background—0% activation). Subtract BKGD from each HTRF Ratio value=HTRF−BKGD. The average of all the […] 100 nM control activator in DMSO controls=Max (100% activation). The following equation is then used to calculate % Activation for each well/candidate as follows: % Activation=(HTRF−BKGD/Max)*100.
Graphpad Prism was used with Transform X values: X=Log(X) and nonlinear regression (dose-response-stimulation): Log(agonist) vs Response−variable slope (four parameters) with constrains set to Bottom=0 and Top=100.
The Activity-Based Probe Assay was performed with various compounds in Tables 1, 2, 3A and 3B.

| Compound | EC50 |
| --- | --- |
| Cc1ccccc1C(=O)Nc1nc(NC(=O)[C@@H]2C[C@H](F)CN2)nn1-c1ccccc1 [Compound 3] | 16 µM and > 100 µM |
| Cc1ccccc1C(=O)Nc1nc(NC(=O)c2cccc(N=[N+]=[N-])c2)n(-c2ccccc2)n1 [Compound 69] | 4 µM |
| O=C(Nc1nc(NC(=O)c2c(F)c(F)c(F)c(F)c2F)nn1-c1ccccc1)c1ccccc1 [Compound 78] | 0.2 µM and 0.4 µM and 0.5 µM |
| O=C(Nc1nc(NC(=O)c2ccnc(O)c2)n(-c2ccccc2)n1)c1ccnc(O)c1 [Compound 96] | 11 µM and 8 µM |
| O=C(Nc1nc(NC(=O)C2CCCNC2)n(-c2ccccc2)n1)C1CCCNC1 (stereo not shown) [Compound 56] | > 100 µM |
| C#Cc1ccc(C(=O)Nc2nc(NC(=O)c3ccc(N=[N+]=[N-])cc3)nn2-c2ccccc2)cc1 [Compound 53] | > 100 µM |
| Cc1ccccc1C(=O)Nc1nc(-c2cn(C)cn2)nn1-c1ccccc1 [Compound 125] | > 100 µM |
| Cc1ccccc1C(=O)Nc1nc(NCc2ccccc2)nn1-c1ccccc1 [Compound 84] | 4 µM |
| Cc1ccccc1C(=O)Nc1nc(N[C@H](C)c2ccccc2)nn1-c1ccc(OC(F)(F)F)cc1 [Compound 118] | 1 µM |
| Cc1ccccc1C(=O)Nc1nc(NC(=O)c2ccncc2)nn1-c1cccc(F)c1 [Compound 89] | 2 µM |
| Cc1cnccc1C(=O)Nc1nc(NC(=O)c2ccncc2C)n(-c2ccccc2)n1 [Compound 99] | 13 µM |
| Cc1ccccc1C(=O)Nc1nc(NC(=O)c2cccc(N=[N+]=[N-])c2)n(-c2ccc(OC(F)(F)F)cc2)n1 [Compound 79] | 1 µM |
| Cc1ccccc1C(=O)Nc1nc(NC(=O)C2CCCNC2)n(-c2ccccc2)n1 (stereo not shown) [Compound 14] | > 100 µM |
| Cc1ccccc1C(=O)Nc1nc(NC(=O)c2ccccc2C)n(-c2ccc3c(c2)CCO3)n1 [Compound 1] | 52 µM and > 100 µM |
| Cc1ccccc1C(=O)Nc1nc(-c2ncccc2F)nn1-c1ccccc1 [Compound 136] | > 100 µM |
| Cc1ccccc1C(=O)Nc1nc(-c2cocn2)nn1-c1ccccc1 [Compound 140] | > 100 µM |
| Cc1ccccc1C(=O)Nc1nc(NC(=O)c2cccnc2)nn1-c1ccc(C(F)(F)F)cc1 [Compound 94] | 4 µM |
| Cc1ccccc1C(=O)Nc1nc(NCc2ccc(Cl)cc2)nn1-c1ccc(OC(F)(F)F)cc1 [Compound 113] | 0.8 µM |
| Cc1ccccc1C(=O)Nc1nc(NCc2cccc(Cl)c2)nn1-c1ccc(OC(F)(F)F)cc1 [Compound 112] | 1 µM |
| Cn1cnc(-c2nc(N)n(-c3ccccc3)n2)c1 [Compound 147] | > 100 µM |
| Cc1c(C(=O)Nc2nc(NC(=O)c3ccnc(F)c3C)n(-c3ccccc3)n2)ccnc1F [Compound 98] | 5 µM |
| Cc1cccc(C)c1C(=O)Nc1nc(NC(=O)c2c(C)cccc2C)n(-c2ccccc2)n1 [Compound 100] | 9 µM |
| Cc1ccccc1C(=O)Nc1nc(NC(=O)c2ccc(N=[N+]=[N-])cc2)nn1-c1ccc(OC(F)(F)F)cc1 [Compound 76] | 34 µM |
| Cc1ccccc1C(=O)Nc1nc(-c2ncccc2C)nn1-c1ccc(C(F)(F)F)cc1 [Compound 141] | 1 µM |
| c1ccc(-n2nc(NCc3ccccn3)nc2NCc2ccccn2)cc1 [Compound 144] | > 100 µM |
| Cc1ccccc1C(=O)Nc1nc(NC(=O)c2cccnc2)nn1-c1cccc(F)c1 [Compound 87] | 7 µM |
| COc1ccc(CNc2nc(NC(=O)c3ccccc3C)n(-c3ccc(OC(F)(F)F)cc3)n2)cc1 [Compound 107] | 1 µM |
| c1ccc(CNc2nc(NCc3ccccc3)n(-c3ccccc3)n2)cc1 [Compound 138] | > 100 µM |
| Cc1ccccc1C(=O)Nc1nc(NC(=O)c2cccc(N=[N+]=[N-])c2)nn1-c1ccccc1 [Compound 66] | 8 µM |
| Cc1ccccc1C(=O)Nc1nc(NCc2ccccc2)nn1-c1ccc(OC(F)(F)F)cc1 [Compound 105] | 1 µM |
